Reference: ChEMBL document CHEMBL1142878, “Synthesis and cytotoxicity evaluation of substituted pyridazino[4,5-b]phenazine-5,12-diones and tri/tetra-azabenzofluorene-5,6-diones” (Eur J Med Chem, 2007)

Assays:
Format in all cases: functional, cell-based
[1] = system: XF498; assay: Anticancer activity against human XF498 cells after 48 hrs by SRB assay; conditions: XF498, 48 h
[2] = system: SK-MEL-2; assay: Anticancer activity against human SK-MEL-2 cells after 48 hrs by SRB assay; conditions: SK-MEL-2, 48 h
[3] = system: SK-OV-3; assay: Anticancer activity against human SKOV3 cells after 48 hrs by SRB assay; conditions: SK-OV-3, 48 h
[4] = system: HCT-15; assay: Anticancer activity against human HCT15 cells after 48 hrs by SRB assay; conditions: HCT-15, 48 h
[5] = system: A549; assay: Anticancer activity against human A549 cells after 48 hrs by SRB assay; conditions: A549, 48 h

Compound | IC50 [1] [nM] | IC50 [2] [nM] | IC50 [3] [nM] | IC50 [4] [nM] | IC50 [5] [nM]
Cc1cnc2nc3c(n2c1)C(=O)C(=O)c1cccnc1-3 | 382 | 286 | 183 | 978 | 745
O=C1C(=O)c2c(nc3ccc(Cl)cn23)-c2ncccc21 | 124 | 141 | 46 | 134 | 126
O=C1c2cnncc2C(=O)c2nc3cc4c(cc3nc21)OCO4 | 118 | 151 | 41 | 116 | 138
Cc1ccc2nc3c(nc2c1C)C(=O)c1cnncc1C3=O | 13 | 12 | 19 | 10 | 13
O=C1C(=O)c2c(nc3ncccn23)-c2ncccc21 | 137 | 139 | 27 | 301 | 160
COc1cccc2c1C(=O)c1c(O)c3c(c(O)c1C2=O)C[C@@](O)(C(=O)CO)C[C@@H]3O[C@H]1C[C@H](N)[C@H](O)[C@H](C)O1 [DOXORUBICIN] | 112 | 97 | 181 | 225 | 118
CCc1cccc2nc3c(nc12)C(=O)c1cnncc1C3=O | 13 | 19 | 34 | 12 | 10
O=C1c2cnncc2C(=O)c2nc3cc(C(F)(F)F)ccc3nc21 | 116 | 116 | 79 | 195 | 174
Cc1cccn2c3c(nc12)-c1ncccc1C(=O)C3=O | 86 | 122 | 51 | 123 | 112
COc1cccc2nc3c(nc12)C(=O)c1cnncc1C3=O | 65 | 29 | 39 | 93 | 109
O=C1C(=O)c2c(nc3c(C(=O)O)cccn23)-c2ncccc21 | 95 | 125 | 56 | 122 | 117
COc1cc(OC)c2nc3c(nc2c1)C(=O)c1cnncc1C3=O | 33 | 38 | 70 | 26 | 44
CN(C)c1ccc2nc3c(nc2c1)C(=O)c1cnncc1C3=O | 70 | 88 | 31 | 24 | 51
O=C1C(=O)c2c(nc3cnccn23)-c2ncccc21 | 92 | 114 | 18 | 123 | 98
Cc1cccc2nc3c(nc12)C(=O)c1cnncc1C3=O | 21 | 34 | 70 | 18 | 29
O=C1c2cnncc2C(=O)c2nc3cc(OC(F)(F)F)ccc3nc21 | 98 | 85 | 63 | 74 | –
Cc1cccc2nc3c(n12)C(=O)C(=O)c1cccnc1-3 | 2570 | 1360 | 1650 | 1450 | 1280
CCOc1cccc2nc3c(nc12)C(=O)c1cnncc1C3=O | 29 | 15 | 32 | 30 | 53
